Molecules are shown by their SMILES.

For assay [1], the target named is T1, Adrenergic receptor alpha (Rattus norvegicus) (UniProt P15823+P23944+P43140+P22086+P19328+P22909). As to the kind of experiment: Intrinsic activity against alpha-adrenoceptor in isolated rat tail artery.
In assay [2] the target is T1, Adrenergic receptor alpha (Rattus norvegicus). As to the kind of experiment: Intrinsic activity against alpha-adrenoceptor in isolated rat vas deferens. The class given is tissue-based.
The target in assay [3] is T2, Adrenergic receptor beta (Homo sapiens) (UniProt P08588+P07550+P13945). Description: Intrinsic activity beta adrenergic receptor in isolated guinea pig tracheal strip. The following applies: Cavia porcellus; target entry is the homologue from another species.
For assay [4], the target named is T1, Adrenergic receptor alpha (Rattus norvegicus). The following applies: Artery.
Description: Compound was tested for alpha-adrenoceptor activity in isolated rat tail artery
For assay [5] the target is unchanged. The following applies: Vas deferens.
Description: Compound was tested for alpha-adrenoceptor activity in isolated rat vas deferens
The target in assay [6] is T2, Adrenergic receptor beta (Homo sapiens). The following applies: Cavia porcellus.
Description: Compound was tested for beta adrenergic receptor activity in isolated guinea pig tracheal strip
Assay [7] shares this target. Particulars: Cavia porcellus. The source holds these as a separate data set.
Description: Compound was tested for beta-adrenoceptor activity in isolated guinea pig atria
Assay [8] has the same target. Particulars: Cavia porcellus. The source holds these as a separate data set.
Description: Compound was tested for beta adrenergic receptor activity in isolated guinea pig atria

Regarding `Oc1ccc(C2(O)CCCNC2)cc1O` (centres undefined), the figures for the Intrinsic activity in assay [1], in assay [2] and in assay [3] were 1, 0.95 and 0.77, respectively.
Regarding `NC[C@H](O)c1ccc(O)c(O)c1`, the Intrinsic activity in assay [1] and in assay [2] was 1 in each case. Moreover, the pD2 in assay [4] worked out at 6.16; in assay [5], 4.96; in assay [6], 6.04; in assay [7], 6.5.
Turning to `Oc1ccc(C2CNCCO2)cc1O` (centres undefined), the values for the Intrinsic activity in assay [1] and in assay [2] were 0.92 and 0.91, respectively.
Consider `NC1CCc2c(ccc(O)c2O)[C@H]1O` (some centres undefined), for which the pD2 was found to be 6.74 in assay [8] and 7.49 in assay [6].
The matching figures for `CC(C)N[C@@H]1CCc2c(ccc(O)c2O)[C@H]1O`: 7.56 and 8.41.
With `CC(C)N1CCCC(O)(c2ccc(O)c(O)c2)C1` (centres undefined), the pD2 in assay [8] was 8.14; in assay [6], 8.26.
On the same counts, the results for `CC(C)N1CCOC(c2ccc(O)c(O)c2)C1` (centres undefined) are 5.74 and 6.34.
